Results reported in patent publication US8192962B2, “Processes for detecting toxic substances” (Daikin Industries, Ltd., priority 2001, dated 2012).

Test system: Mitochondria-located protein genes
Test: DNA chip mRNA expression in yeast, mitochondria-located protein genes (Table 2)
Format: cell-based, Saccharomyces cerevisiae S288C
Conditions: cells incubated two hours with the chemical substance
How it was run: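 Whole-genome yeast DNA chip hybridization (65° C., >12 h) of Cy-labeled cDNA from S288C cells exposed 2 h at 25° C. to a sub-lethal toxicant dose in YPD; value is intensity relative to chemical-free control.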

Measured: The level of expressed mRNA in the presence of chemical substance/The level of expressed mRNA in the absence of chemical substance

manganese ethylenebis(dithiocarbamate) [(8)]
1.8: yeast gene YCL057W | yeast gene YGR244C
0.6: yeast gene YDL181W | yeast gene YLR304C
0.7: yeast gene YFL016C | yeast gene YGL187C | yeast gene YJR121W | yeast gene YKR066C | yeast gene YMR203W | yeast gene YNL055C | yeast gene YOR187W | yeast gene YPR024W
0.9: yeast gene YBR003W | yeast gene YCR046C | yeast gene YDR178W | yeast gene YHR008C | yeast gene YJL102W | yeast gene YJL133W | yeast gene YLR348C | yeast gene YML120C | yeast gene YNL071W | yeast gene YNL104C | yeast gene YNL256W
0.8: yeast gene YBL030C | yeast gene YBL099W | yeast gene YBR221C | yeast gene YER178W | yeast gene YGL018C | yeast gene YGR062C | yeast gene YGR082W | yeast gene YJR045C | yeast gene YJR077C | yeast gene YKL141W | yeast gene YKL148C | yeast gene YLL041C | yeast gene YLR259C | yeast gene YMR152W | yeast gene YOR130C | yeast gene YOR142W | yeast gene YOR316C
1.1: yeast gene YBR044C | yeast gene YBR185C | yeast gene YDL067C | yeast gene YDL198C | yeast gene YEL039C | yeast gene YKL194C | yeast gene YMR083W | yeast gene YOR150W | yeast gene YPL040C | yeast gene YPL215W | yeast gene YPR037C
1.7: yeast gene YOR020C
1.5: yeast gene YBR091C | yeast gene YCR083W | yeast gene YML054C | yeast gene YMR267W | yeast gene YOR037W
2.3: yeast gene YKL142W
1.0: yeast gene YEL024W | yeast gene YIL155C | yeast gene YJL180C | yeast gene YLR395C | yeast gene YNL073W | yeast gene YOL096C | yeast gene YOR100C | yeast gene YOR176W | yeast gene YPL135W | yeast gene YPL262W
1.6: yeast gene YBL038W | yeast gene YGL191W | yeast gene YGR174C | yeast gene YKL016C
1.9: yeast gene YDR258C | yeast gene YGR008C | yeast gene YGR076C
1.4: yeast gene YBR282W | yeast gene YGR028W | yeast gene YJL166W | yeast gene YLR038C | yeast gene YMR023C | yeast gene YMR035W | yeast gene YPR134W
1.3: yeast gene YBR122C | yeast gene YBR251W | yeast gene YDR231C | yeast gene YDR377W | yeast gene YDR529C | yeast gene YJL096W | yeast gene YMR089C | yeast gene YPL134C
1.2: yeast gene YAL039C | yeast gene YDR298C | yeast gene YDR347W | yeast gene YKL003C | yeast gene YKL170W | yeast gene YLR295C | yeast gene YML129C | yeast gene YPR047W
0.4: yeast gene YBL022C
2.6: yeast gene YDR079W
